Measured values taken from patent publication US20130005743A1, “New positive allosteric modulators of nicotinic acetylcholine receptor” (H. Lundbeck A/S, priority 2011, published 2013).

Assays:
human α7 receptor = target: T1, human α7 receptor (Homo sapiens, UniProt P36544); assay: α7 NNR flux assay (FDSS Ca assay, positive allosteric modulation of acetylcholine response); assay type: cell-based; settings: human α7 receptor stably expressed in rat GH4C1 cells; acetylcholine 20 μM; % modulation relative to PNU-120596 set to 100%
T1 construct: host or cells: rat GH4C1 cell line
T1 sequence (P36544 23-502): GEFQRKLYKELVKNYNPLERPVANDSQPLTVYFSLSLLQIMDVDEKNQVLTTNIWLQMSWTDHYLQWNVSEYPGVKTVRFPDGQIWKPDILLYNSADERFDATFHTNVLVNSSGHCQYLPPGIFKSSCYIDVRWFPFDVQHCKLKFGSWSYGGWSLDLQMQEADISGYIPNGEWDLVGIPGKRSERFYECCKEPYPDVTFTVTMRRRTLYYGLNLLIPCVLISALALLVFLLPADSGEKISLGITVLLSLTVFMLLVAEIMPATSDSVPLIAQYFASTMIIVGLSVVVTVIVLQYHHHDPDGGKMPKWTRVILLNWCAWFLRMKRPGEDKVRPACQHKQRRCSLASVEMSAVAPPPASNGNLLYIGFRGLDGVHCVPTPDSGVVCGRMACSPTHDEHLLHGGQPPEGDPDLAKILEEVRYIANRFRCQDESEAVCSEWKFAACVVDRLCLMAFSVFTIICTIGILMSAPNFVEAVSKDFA
Experimental: The nicotinic acetylcholine receptor α7 is a calcium-permeable ion channel, whose activity can be measured by over expression in mammalian cells or oocytes. In this version of the assay, the human α7 receptor is stably expressed in the rat GH4C1 cell line. The assay was used to identify positive allosteric modulators (PAMs) of the α7 receptor. Activation of the channel was measured by loading cells with the calcium-sensitive fluorescent dye. Calcium-4 (Assay kit from Molecular Devices), and then measuring real-time changes, in fluorescence upon treatment with test compounds.
The cell line ChanClone GH4C1-nAChRalpha7 from Genionics was seeded from frozen stock in 384-well plates in culture media 2-3 days before experiment to form an approximately 80% confluent layer on the day of experiment.
The cell culture were split into “22.5 cm×22.5 cm”-plates with approximately 100×10^3 cells/cm^2. After four days incubation in a humidified incubator at 37° C. and 5% CO2, it had grown to an 80-90% confluent layer, and the cells were harvested.
Two or three days before the experiment the cells were seeded in 384 well plates from Greiner bio-one (781946, CELLCOAT, Poly-D-Lysine, black, μClear).
The cells were seeded in 384 well plates with 30 μL/well (30000 cells/well) while stirring the cell suspension or otherwise preventing the cells from precipitating.
The loading buffer was 5% v/v Calcium-4 Kit and 2.5 mM Probenecid in assay buffer.
Culture media was removed from the cell plates and 20 μL loading buffer was added in each well. The cell plates were placed in trays and incubated 90 minutes in the incubator (37° C.). Thereafter the plates were incubated 30 minutes at room temperature, still protected from light.
The assay buffer was HBSS with 20 mM HEPES, pH 7.4 and 3 mM CaCl2.
[…] 10 mM compound solution in DMSO was diluted in 50 μL assay buffer. The final test concentrations in the cell plates were 20-10-5-2.5-1.25-0.625-0.312-0.156-0.078-0.039 μM. Assay buffer and 3 μM PNU-120596 were used for control. The agonist acetylcholine was added to a final concentration of 20 μM (˜EC100). In the FDSS7000 the Ex480-Em540 was measured with 1 second intervals. The baseline was made of 5 frames before addition of test compounds, and 95 frames more were made before addition of acetylcholine. The measurement stopped 30 frames after the 2nd addition. Raw data for each well were collected as “the maximum fluorescence count” in the interval 100-131 seconds and as “the average fluorescence count” in the interval 96-100 seconds. The positive allosteric modulation in the 2nd addition was the enhancement of agonist response with test compound compared to agonist alone.
Results were calculated as % modulation of test compound compared to the reference PNU-120596 set to 100%.

α7 nACh receptors = assay: α7 NNR oocyte assay (electrophysiological recordings in Xenopus oocytes); assay type: cell-based, human or rat; settings: compound at 10 μM co-applied with ACh (30 μM), fold modulation of the control response; for Fold modulation, peak: peak response; for Fold modulation, AUC: total charge (AUC)
Experimental: Expression of α7 nACh Receptors in Xenopus Oocytes.
Oocytes were surgically removed from mature female Xenepus laevis anaesthetized in 0.4% MS-222 for 10-15 min. The oocytes were then digested at room temperature for 2-3 hours with 0.5 mg/mL collagenase (type IA Sigma-Aldrich) in OR2 buffer (82.5 mM NaCl, 2.0 mM KCl, 1.0 mM MgCl2 and 5.0 mM HEPES, pH 7.6). Oocytes avoid of the follicle layer were selected and incubated for 24 hours in Modified Barth's Saline buffer (88 mM NaCl, 1 mM KCl, 15 mM HEPES, 2.4 mM NaHCO3, 0.41 mM CaCl2, 0.82 mM MgSO4, 0.3 mM Ca(NO3)2) supplemented with 2 mM sodium pyruvate, 0.1 U/l penicillin and 0.1 μg/1 streptomycin. Stage 1V oocytes were identified and injected with 4.2-48 nl of nuclease free water containing 0.1-1.2 ng of cRNA coding for human α7 nACh receptors or 3.0-32 ng of cRNA coding for rat α7 nACh receptors and incubated at 18° C. for 1-10 days when they were used for electrophysiological recordings.
Electrophysiological Recordings of α7 nACh Receptors Expressed in Oocytes.
Oocytes were used for electrophysiological recordings 1-10 days after injection. Oocytes were placed in a 1 mL bath and perfused with Ringer buffer (115 mM NaCl, 2.5 mM KCl, 10 mM HEPES, 1.8 mM CaCl2, 0.1 mM MgCl2, pH 7.5)'. Cells were impaled with agar plugged 0.2-1 MΩ electrodes containing 3 M KCl and voltage clamped at −90 mV by a GeneClamp 500B amplifier. The experiments were performed at room temperature. Oocytes were continuously perfused with Ringer buffer and the drugs were applied in the perfusate. ACh (30 μM) applied for 30 sec were used as the standard agonist for activation of the α7 nACh receptors. In the standard screening set-up the new test compound (10 μM or 30 μM) were applied for 1 min of pre-application allowing for evaluation of agonistic activity followed by 30 sec of co-application with ACh (30 μM) allowing for evaluation of PAM activity. The response of co-application was compared to the agonistic response obtained with ACh alone. The drug induced effects on both the peak response and the total charge (AUC) response were calculated thus giving the effect of drug induced PAM activity as fold modulation of the control response. Table 2 indicates fold modulation of compounds No. 21, 22, 24, 34, 35 and 36 at determined at 10 μM.
For more elaborate studies doses-response curves can be performed for evaluation of max-fold modulation and EC50 values for both peak and AUC responses.

| SMILES | EC50 (human α7 receptor) | melting point | Fold modulation, peak (α7 nACh receptors) | Fold modulation, AUC (α7 nACh receptors) |
| --- | --- | --- | --- | --- |
| COc1ccc(-n2nc(C)c3c(C(=O)Nc4c(C)ccnc4C)cc(C)nc32)cc1 [Compound 1, 1-(4-Methoxy-phenyl)-3,6-dimethyl-1H-pyrazolo[3,4-b]pyridine-4-carboxylic acid (2,4-dimethyl-pyridin-3-yl)-amide] | 3.9 µM | 224 to 227 °C |  |  |
| Cc1cc(C(=O)Nc2c(C)ccnc2C)c2c(C)nn(-c3ccc(S(N)(=O)=O)cc3)c2n1 [Compound 21, 3,6-Dimethyl-1-(4-sulfamoyl-phenyl)-1H-pyrazolo[3,4-b]pyridine-4-carboxylic acid (2,4-dimethyl-pyridin-3-yl)-amide] | ≥ 20 µM |  | 1.7 | 1.7 |
| Cc1cc(C(=O)Nc2c(C)ccnc2C)c2c(C)nn(-c3ccc(C(F)(F)F)cc3)c2n1 [Compound 22, 3,6-Dimethyl-1-(4-trifluoromethyl-phenyl)-1H-pyrazolo[3,4-b]pyridine-4-carboxylic acid (2,4-dimethyl-pyridin-3-yl)-amide] | ≥ 20 µM |  | 8.1 | 3.2 |
| COc1ccc(-n2nc(OC)c3c(C(=O)Nc4c(C)ccnc4C)cc(C)nc32)cc1 [Compound 24, 3-Methoxy-1-(4-methoxy-phenyl)-6-methyl-1H-pyrazolo[3,4-b]pyridine-4-carboxylic acid (2,4-dimethyl-pyridin-3-yl)-amide] | ≥ 20 µM |  | 5.1 | 2.5 |
| COc1nccc(C)c1NC(=O)c1cc(C)nc2c1c(C)nn2-c1ccccc1 [Compound 27, 3,6-Dimethyl-1-phenyl-1H-pyrazolo[3,4-b]pyridine-4-carboxylic acid (2-methoxy-4-methyl-pyridin-3-yl)-amide] | 5 µM | 172 to 174 °C |  |  |
| COc1cc(C)ncc1NC(=O)c1cc(C)nc2c1c(C)nn2-c1ccccc1 [Compound 29, 3,6-Dimethyl-1-phenyl-1H-pyrazolo[3,4-b]pyridine-4-carboxylic acid (4-methoxy-6-methyl-pyridin-3-yl)-amide] | 5.1 µM | 206 to 207 °C |  |  |
| Cc1cc(C(=O)Nc2cccnc2C)c2c(C)nn(-c3ccccc3)c2n1 [Compound 31, 3,6-Dimethyl-1-phenyl-1H-pyrazolo[3,4-b]pyridine-4-carboxylic acid (2-methyl-pyridin-3-yl)-amide] | 5.6 µM | 208 to 209 °C |  |  |
| Cc1cc(C(=O)Nc2cnccc2C)c2c(C)nn(-c3ccccc3)c2n1 [Compound 32, 3,6-Dimethyl-1-phenyl-1H-pyrazolo[3,4-b]pyridine-4-carboxylic acid (4-methyl-pyridin-3-yl)-amide] | 6.2 µM | 227 to 228 °C |  |  |
| Cc1cc(C(=O)Nc2c(C)ccnc2C)c2c(C)nn(-c3ccc(S(C)(=O)=O)cc3)c2n1 [Compound 34, 1-(4-Methanesulfonyl-phenyl)-3,6-dimethyl-1H-pyrazolo[3,4-b]pyridine-4-carboxylic acid (2,4-dimethyl-pyridin-3-yl)-amide] | ≥ 20 µM |  | 1.9 | 1.9 |
| COc1ccc(-n2nc(C)c3c(C(=O)Nc4c(C)ccnc4C)cc(-c4ccccc4)nc32)cc1 [Compound 35, 1-(4-Methoxy-phenyl)-3-methyl-6-phenyl-1H-pyrazolo[3,4-b]pyridine-4-carboxylic acid (2,4-dimethyl-pyridin-3-yl)-amide] | ≥ 20 µM |  | 14 | 9.2 |
| COc1ccc(-n2nc(C)c3c(C(=O)Nc4cnccc4C#N)cc(C)nc32)cc1 [Compound 36, 1-(4-Methoxy-phenyl)-3,6-dimethyl-1H-pyrazolo[3,4-b]pyridine-4-carboxylic acid (4-cyano-pyridin-3-yl)-amide] | ≥ 20 µM |  | 7.9 | 3.9 |
